Target: T1, human EGF-R (Homo sapiens, UniProt P00533)
T1 construct: expressed in transfected cells
Test: Inhibition of the EGFR-dependent proliferation of a murine haematopoietic cell line expressing human EGF-R, stimulated with EGF
Assay type: cell-based
Conditions: 20 ng/ml human EGF, 48 hours at 37° C., Cell Titer 96 AQueous assay
Method: A murine haematopoietic cell line is genetically modified so as to express functional human EGF-R. The proliferation of this cell line can therefore be stimulated by EGF.
The test is carried out as follows:
The cells are cultivated in RPMI/1640 medium. The proliferation is stimulated with 20 ng/ml of human EGF (Promega). To investigate the inhibitory activity of the compounds according to the invention these compounds are dissolved in 100% dimethylsulphoxide (DMSO) and added to the cultures in various dilutions, the maximum DMSO concentration being 1%. The cultures are incubated for 48 hours at 37° C.
In order to determine the inhibitory activity of the compounds according to the invention the relative cell number is measured in O.D. Units using the Cell Titer 96™ AQueous Non-Radioactive Cell Proliferation Assay (Promega). The relative cell number is calculated as a percentage of the control and the concentration of active substance which inhibits the proliferation of the cells by 50% (IC50) is derived therefrom.

T1 sequence (P00533 25-1210): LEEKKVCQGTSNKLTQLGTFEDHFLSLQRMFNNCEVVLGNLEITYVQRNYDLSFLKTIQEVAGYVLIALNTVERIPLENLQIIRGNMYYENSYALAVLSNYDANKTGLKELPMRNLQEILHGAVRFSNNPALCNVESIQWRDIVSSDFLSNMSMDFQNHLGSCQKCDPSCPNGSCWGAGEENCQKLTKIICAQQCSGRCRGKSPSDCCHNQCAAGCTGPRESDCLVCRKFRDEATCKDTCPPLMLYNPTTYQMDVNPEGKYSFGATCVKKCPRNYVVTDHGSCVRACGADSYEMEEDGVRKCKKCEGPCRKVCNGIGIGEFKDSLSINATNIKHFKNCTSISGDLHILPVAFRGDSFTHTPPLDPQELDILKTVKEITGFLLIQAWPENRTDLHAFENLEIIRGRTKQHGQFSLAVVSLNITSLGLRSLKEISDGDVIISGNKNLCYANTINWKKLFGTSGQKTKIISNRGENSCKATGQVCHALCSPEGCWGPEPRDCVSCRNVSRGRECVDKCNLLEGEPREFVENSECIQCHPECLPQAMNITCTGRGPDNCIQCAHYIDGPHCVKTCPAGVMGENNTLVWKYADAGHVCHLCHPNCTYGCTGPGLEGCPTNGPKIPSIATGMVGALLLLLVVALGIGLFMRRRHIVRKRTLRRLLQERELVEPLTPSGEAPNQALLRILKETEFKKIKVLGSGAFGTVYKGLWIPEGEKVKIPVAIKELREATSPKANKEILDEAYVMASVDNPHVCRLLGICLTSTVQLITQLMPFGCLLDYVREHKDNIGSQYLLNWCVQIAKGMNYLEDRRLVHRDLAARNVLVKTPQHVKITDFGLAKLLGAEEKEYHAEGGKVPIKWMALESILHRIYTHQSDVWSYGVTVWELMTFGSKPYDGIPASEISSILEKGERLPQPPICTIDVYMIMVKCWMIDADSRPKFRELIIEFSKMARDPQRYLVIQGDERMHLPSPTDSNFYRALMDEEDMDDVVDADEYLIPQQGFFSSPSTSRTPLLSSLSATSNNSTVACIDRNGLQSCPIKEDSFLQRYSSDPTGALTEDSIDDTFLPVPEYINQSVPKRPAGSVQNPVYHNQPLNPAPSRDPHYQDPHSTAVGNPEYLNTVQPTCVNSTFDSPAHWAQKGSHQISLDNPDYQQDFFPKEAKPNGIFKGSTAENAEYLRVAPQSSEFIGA

Row | SMILES | IC50
1 | COc1cc2ncnc(Nc3cccc(Cl)c3F)c2cc1O[C@H]1CC[C@H]([C@@H]2NCCNC2=O)CC1 [1(1b), trans-(S)-3-{4-[4-(3-chloro-2-fluoro-phenylamino)-7-methoxy-quinazolin-6-yloxy]-cyclohexyl}-piperazin-2-one] | 1.4 nM
2 | COc1cc2ncnc(Nc3cccc(Cl)c3F)c2cc1O[C@H]1CC[C@H]([C@@H]2NCCN(C)C2=O)CC1 [1(2), trans-(S)-3-{4-[4-(3-chloro-2-fluoro-phenylamino)-7-methoxy-quinazolin-6-yloxy]-cyclohexyl}-1-methyl-piperazin-2-one] | 1 nM
3 | COc1cc2ncnc(Nc3cccc(Cl)c3F)c2cc1O[C@H]1CC[C@@H]([C@@H]2NCCNC2=O)CC1 [1(1a), cis-(S)-3-{4-[4-(3-chloro-2-fluoro-phenylamino)-7-methoxy-quinazolin-6-yloxy]-cyclohexyl}-piperazin-2-one] | 10 nM

The next lines start with the values.

Row | IC50 | SMILES
4 | 1.6 nM | COc1cc2ncnc(Nc3cccc(Cl)c3F)c2cc1O[C@H]1CC[C@H]([C@H]2NCCNC2=O)CC1 [1(5), trans-(R)-3-{4-[4-(3-chloro-2-fluoro-phenylamino)-7-methoxy-quinazolin-6-yloxy]-cyclohexyl}-piperazin-2-one]
5 | 1 nM | COc1cc2ncnc(Nc3cccc(Cl)c3F)c2cc1OC1CCC([C@H]2C(=O)NCCN2C)CC1 (mixture of isomers) [Example 1, cis/trans-(S)-3-{-4-[4-(3-chloro-2-fluoro-phenylamino)-7-methoxy-quinazolin-6-yloxy]-cyclohexyl}-4-methyl-piperazin-2-one]
6 | 1 nM | COc1cc2ncnc(Nc3cccc(Cl)c3F)c2cc1OC1CCC([C@H]2C(=O)N(C)CCN2C)CC1 (mixture of isomers) [1(3), cis/trans-(S)-3-{4-[4-(3-chloro-2-fluoro-phenylamino)-7-methoxy-quinazolin-6-yloxy]-cyclohexyl}-1,4-dimethyl-piperazin-2-one]
7 | 12.5 nM | COc1cc2ncnc(Nc3cccc(Cl)c3F)c2cc1O[C@H]1CC[C@@H]([C@H]2NCCNC2=O)CC1 [1(4), cis-(R)-3-{4-[4-(3-chloro-2-fluoro-phenylamino)-7-methoxy-quinazolin-6-yloxy]-cyclohexyl}-piperazin-2-one]
